“And” between values parts separate entries of the source, which are not always exact repeats. Identical values can stand only once. Values belong to the compound of their own block, whether it stands above or below them.
Columns and labels:
[1] = test system: HepaRG cells; assay: Total protein content of HepaRG monolayer cultures; assay type: cell-based, human
Protocol: (§1) For testing, the cells are seeded in 6-well and 24-well culture plates (Corning) in HepaRG media with different FBS batches or other differences in medium composition. After a 2 weeks proliferation phase, 2% of DMSO will be added to half of the cultures. After another 2 weeks of culturing, the confluence and morphology of the cultures will be assessed microscopically. Furthermore the +DMSO and −DMSO cell cultures in the 24-well plates will be tested for biochemical activity, i.e. urea production, ammonia elimination and protein content. The cultured cells are washed twice using phosphate buffered saline (PBS, NBPI International) and then incubated with test medium consisting of HepaRG culture medium supplemented with 1.5 mM ^15NH4Cl (Sigma), 2.75 mM D-galactose (Sigma), 2 mM ornithine hydrochloride (Sigma) and 2 mM L-lactate (Sigma). Medium samples are taken after 1 hr from the culture wells, as a reference, and after 24 hours. At the end of the test period the cells are washed three times using PBS and stored at −20° C. for protein determination. From the changes in concentration at t=1 hr and 24 hr of urea and ammonia an activity per hour and per mg protein/well is calculated. Quality of the cell-loaded bioreactors, measured by hepatocyte function at the start of the treatment, will be compared with values of primary hepatocytes that have been tested extensively in vitro in the past.
Total protein: Total protein was quantified by spectrometry using Coomassie blue (Bio-Rad).

[2] = test system: HepaRG cells; assay: Ammonia elimination of HepaRG monolayer cultures; assay type: cell-based, human
Protocol: For testing, the cells are seeded in 6-well and 24-well culture plates (Corning) in HepaRG media with different FBS batches or other differences in medium composition. After a 2 weeks proliferation phase, 2% of DMSO will be added to half of the cultures. After another 2 weeks of culturing, the confluence and morphology of the cultures will be assessed microscopically. Furthermore the +DMSO and −DMSO cell cultures in the 24-well plates will be tested for biochemical activity, i.e. urea production, ammonia elimination and protein content. […] From the changes in concentration at t=1 hr and 24 hr of urea and ammonia an activity per hour and per mg protein/well is calculated. Quality of the cell-loaded bioreactors, measured by hepatocyte function at the start of the treatment, will be compared with values of primary hepatocytes that have been tested extensively in vitro in the past.
Ammonia: Ammonia concentrations are determined by an enzymatic kinetic colorimetric assay using glutamate dehydrogenase and NADPH, using the Ammonia (rapid) kit (Megazyme, Ireland) according to the instructions of the manufacturer.

[3] = test system: HepaRG cells; assay: Urea production of HepaRG monolayer cultures; assay type: cell-based, human
Protocol: For testing, the cells are seeded in 6-well and 24-well culture plates (Corning) in HepaRG media with different FBS batches or other differences in medium composition. After a 2 weeks proliferation phase, 2% of DMSO will be added to half of the cultures. After another 2 weeks of culturing, the confluence and morphology of the cultures will be assessed microscopically. Furthermore the +DMSO and −DMSO cell cultures in the 24-well plates will be tested for biochemical activity, i.e. urea production, ammonia elimination and protein content. […] Medium samples are taken after 1 hr from the culture wells, as a reference, and after 24 hours. At the end of the test period the cells are washed three times using PBS and stored at −20° C. for protein determination. From the changes in concentration at t=1 hr and 24 hr of urea and ammonia an activity per hour and per mg protein/well is calculated.
Urea: Urea concentrations of test medium samples are determined using the blood urea nitrogen test of Sigma Chemical Co according to the instructions of the manufacturer.
(§2) The HepaRG cells are cultured as indicated above in 24 well in presence or absence of 1 mM CG during the last 5 days. Next the cells are tested as indicated above in presence or absence of CG during 24 hours. To determine the conversion of ammonia into urea, the ^15N urea enrichment (single and double labeled) is measured in the test samples using mass-spectrometry. Similarly, HepG2 and cBAL111 cells were tested for their response to CG.

[4] = test system: HepaRG cells; assay: 15N urea enrichment (conversion of ammonia into urea) in HepaRG monolayer cultures; assay type: cell-based, human; conditions: HepaRG monolayer +DMSO, no CG
Protocol: as §1
^15N Urea: Single and Double labelled urea is measured in the test medium samples using mass-spectrometry.
as §2

[5] = test system: HepaRG cells; assay: Galactose elimination of HepaRG monolayer cultures; assay type: cell-based, human; conditions: HepaRG monolayer +DMSO
Protocol: as §1

[6] = test system: HepaRG cells; assay: ApoA1 production of HepaRG monolayer cultures (ELISA); assay type: cell-based, human
Protocol: as §1
ApoA1: Human ApoA1 concentrations are determined by ELISA using rabbit anti-human ApoA1 (1:500, Calbiochem, 178422), as first antibody, monoclonal mouse anti human ApoA1 (1:500, Calbiochem, 178472) as second antibody and polyclonal rabbit anti mouse IgG-HRP (1:2000, Dako Po 260) as third antibody.

[7] = test system: HepaRG cells; assay: AST and LDH leakage of HepaRG monolayer cultures; assay type: cell-based, human; conditions: HepaRG monolayer +DMSO
Protocol: as §1
AST and LDH: Both AST and LDH activities are analyzed spectrophotometrically using a P800 Roche Diagnostics analyzer.

[8] = test system: HepaRG cells; assay: Lactate elimination/consumption of HepaRG monolayer cultures; assay type: cell-based, human
Protocol: as §1, with “At the end of the test period the cells are washed three times using PBS and stored at −20° C. for protein determination.” left out
Lactate and glucose concentration: Both are analyzed using a P800 analyzer (Roche Diagnostics).

[9] = test system: HepaRG cells; assay: RT-PCR mRNA levels of hepatic genes in HepaRG monolayer cultures; assay type: cell-based, human
Protocol: The HepaRG cells cultured in the 6-well plates are lysed and the RNA is isolated using the RNeasy kit (Qiagen). Next, real-time reverse transcriptase-polymerase chain reactions (RT-PCR) are performed to quantify mRNA levels of hepatic genes as well as 18S ribosomal RNA levels by RT-PCR.
First-strand cDNA is generated using a combination of 40 pmol of gene-specific RT-primers (see Table 1) and 134 units of Superscript III (Invitrogen) and 1 μg RNA in a total volume of 25 μl at 50° C. for one hour followed by a 15 min incubation at 70° C. The resulting gene-specific RT reaction mixtures are column purified using Qiaquick PCR Purification Kit (Qiagen).
Real-time PCR is performed using 1 μl of cDNA and LightCycler FastStart DNA Master SYBR® Green 1 reagent (Roche). PCR primers are depicted in the Table 3. The thermal cycling profile of the touchdown PCR is as follows: 94° C. for 10 min, followed by 40 cycles of 94° C. for 1 s, primer annealing at 68° C. for 7 s with a 0.5° C./cycle decrease until 63° C., and extension for 40 s at 72° C. PCR specificity is verified by melting curve analysis and agarose gel electrophoresis. The mRNA quantification is carried out by using the LinRegPCR programme (Ramakers et al.^17). For each sample the mRNA starting level is normalised for the 18S rRNA starting level. To correct for variations between RT-PCR runs, the mRNA starting levels of liver specific genes of NKNT-3 cells are additionally standardized for average mRNA starting levels of two liver samples that are simultaneously subjected to RT-PCR.

[10] = target: T1, Arginase II (Arg II) (Homo sapiens, UniProt P78540); conditions: C3A cells; cited from earlier work
T1 construct: Arginase II (Arg II) mRNA and protein was expressed at high levels in C3A cells; endogenous in cells; host or cells: C3A cells (HepG2 sub-clone)
T1 sequence (P78540 23-354): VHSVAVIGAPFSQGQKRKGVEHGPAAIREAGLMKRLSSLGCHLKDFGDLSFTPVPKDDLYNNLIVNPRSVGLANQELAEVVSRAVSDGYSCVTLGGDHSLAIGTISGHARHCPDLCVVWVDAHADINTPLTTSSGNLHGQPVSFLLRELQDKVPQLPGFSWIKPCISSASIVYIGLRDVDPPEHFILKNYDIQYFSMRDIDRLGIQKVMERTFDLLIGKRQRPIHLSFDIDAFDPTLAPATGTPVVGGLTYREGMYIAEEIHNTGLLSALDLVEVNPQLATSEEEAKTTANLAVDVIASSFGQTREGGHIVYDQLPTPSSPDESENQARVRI

[11] = HepaRG monolayer, 2% DMSO last 2 weeks, no CG
[12] = HepaRG monolayer +DMSO, per well
[13] = HepaRG monolayer, DMSO treatment

effect on cell number ([1]; presence of DMSO, deduced from total protein content): drastically reduced
effect on CYP2B6 and 3A4 expression [9, 13]: increased
Compound: C[S+](C)[O-] [DMSO, dimethylsulfoxide]
total protein/well [1, 11]: 109 ± 21 µg
cells killed by DMSO treatment ([1]; HepaRG monolayer, deduced from total protein/well content and increased cell leakage): more than 50%
Ammonia elimination (absolute value) [2, 12]: 11.6 ± 4.3 nmol/h
Ammonia elimination [2, 11]: 107 ± 41 nmol/h/mg protein and 110 ± 49 nmol/h/mg protein
Urea production (absolute value) [3, 12]: 0.8 ± 0.5 nmol/h
Urea production [3, 11]: 8.1 ± 6.8 nmol/h/mg protein and 6.0 ± 4.2 nmol/h/mg protein and 7.0 ± 7.0 nmol/h/mg protein
15N urea enrichment [4]: 15.5 ± 8.4 % of total urea and 16.0 ± 8.4 % of total urea
Galactose elimination (protein normalized) [5]: 58 ± 17 nmol/h/mg protein
Galactose elimination (absolute value) ([5]; per well): 7.2 ± 1.8 nmol/h
ApoA1 synthesis ([6]; HepaRG monolayer +DMSO −CG): 1.2 ± 1.1 ug/h/mg protein
ApoA1 production (absolute value) [6, 12]: 0.11 ± 0.11 µg/h
ApoA1 production [6, 11]: 1.06 ± 0.95 μg/h/mg protein
AST leakage (protein normalized) [7]: 4.9 ± 2.4 mU/h/mg protein
LDH leakage (protein normalized) [7]: 21.2 ± 9.4 mU/h/mg protein
AST leakage (absolute value) ([7]; per well): 0.43 ± 0.08 mU/h
LDH leakage (absolute value) ([7]; per well): 1.87 ± 0.43 mU/h
Lactate consumption ([8]; HepaRG monolayer +DMSO −CG): production
Lactate elimination [8, 11]: production
ArgII mRNA level ([9]; HepaRG monolayer +DMSO −CG): 718 ± 463 % of in vivo
ALB mRNA level [9, 11]: 23 ± 4 % of in vivo and 22.7 ± 4.4 % of in vivo
ARG1 mRNA level [9, 11]: 5 ± 4 % of in vivo and 4.6 ± 3.7 % of in vivo
CPS mRNA level [9, 11]: 1.1 ± 0.4 % of in vivo
CYP2B6 mRNA level [9, 11]: 61 ± 30 % of in vivo and 60.7 ± 30.0 % of in vivo
CYP3A4 mRNA level [9, 11]: 69 ± 47 % of in vivo and 68.9 ± 47.2 % of in vivo
GS mRNA level [9, 11]: 90 ± 29 % of in vivo and 90.1 ± 29.1 % of in vivo
HNF4 mRNA level [9, 11]: 61 ± 21 % of in vivo and 60.8 ± 21.1 % of in vivo
PXR mRNA level [9, 11]: 42 ± 19 % of in vivo and 41.7 ± 19.2 % of in vivo
effect on expression of other hepatic genes tested [9, 13]: either unaffected or decreased
effect on gene expression of synthetic and metabolic genes, as CPS and albumin and galactose elimination ([9]; presence of DMSO): inhibited

Compound: N=C(NO)NCC[C@H](N)C(=O)O [N^ω-hydroxy-nor-L-arginine]
effect on Arginase II [10]: inhibited
effect on urea production [10]: prevented
